Like-named read-outs stand apart in the source and are kept apart here. Marks after values point to notes of the source that are not given here.
What was measured:
[1] = biological target: T1, human CB2 receptor (Homo sapiens, UniProt P34972); assay: Displacement of 3H-CP55,940 in human CB2 receptor-transfected cells (CHO-K1); type: binding; conditions: radioligand 3H-CP55940, Tables 6 and 7
T1 construct: expressed in transfected cells; host or cells: CHO-K1
Method: (§1) Human CB2 receptor affinity. The relative selectivity of the analogs for CB1 versus CB2 receptors varied modestly regardless of the structural modifications examined to date.
Methods—binding assay in transfected cell lines. The methods used for performing binding assays in transfected cells expressing human CB1 or CB2 receptors are those used above. The CB1 receptor involved a HEK-293 expression system whereas the CB2 receptor was expressed in CHO-K1 cells. […] The incubations and separations were then performed as described above for rat brain membrane preparations.
Data analysis. Saturation and displacement data were analyzed by unweighted nonlinear regression of receptor binding data. For displacement studies, curve-fitting and IC50 calculation were done with GraphPad Prism (GraphPad Software, Inc., San Diego, Calif.), which fits the data to one and two-site models and compares the two fits statistically. A similar approach was used for the analysis of isotherm data for calculation of Kd's. A two-site fit was accepted only if it was statistically significant (p<0.05) and the following results were not observed:
IC50 values were then converted to Ki values by reported methods (Cheng and Prusoff, 1973). The statistical evaluation of curve-fitting data allowed for a non-arbitrary conclusion based on the displacement data.

[2] = biological target: T2, G-protein-linked cannabinoid receptors (Rattus norvegicus, UniProt P20272); assay: GTP-γ-[35S] binding in whole rat brain; type: biochemical; conditions: for Emax: read-out: Emax, GTP-γ-[35S] in Whole Rat Brain
T2 construct: tissue Charles River or Pel-Freez Biologicals; host or cells: whole rat brain crude membrane homogenate
Text: Cannabinoid receptor-mediated alteration in GTP-γ-[^35S] binding.
(§2) Introduction. The purpose of this assay was to characterize the functional activity of lead compounds identified by the radioligand competition binding assays described above. Data from the GTP-γ-[^35S] binding assay was used to determine if a compound was an agonist, antagonist or inverse agonist at G-protein-linked cannabinoid receptors. Agonist binding to a G-protein-linked receptor results in an increased affinity of the G-protein α-subunit for GTP relative to GDP. Eventually, an active αGTP complex forms to complete the stimulus-effector coupling. The α-subunit has intrinsic GTPase activity which generates a free α-subunit which can recombine with the β- and γ-subunits readying the G-protein for another signal transduction cycle. In the current assay, GTP-γ-[^35S] cannot be hydrolyzed by the α-subunit. Thus, the amount of bound GTP-γ-[^35S] is a marker for G-protein activation. In this assay, an agonist increases basal GTP-γ-[^35S] binding, an inverse agonist decreases basal binding and basal binding would be unaffected by an antagonist.
Experimental Design. The specific binding of GTP-γ-[^35S], in the absence of test compound, was termed “basal” activity. Test compounds were characterized as agonist, antagonist, or inverse agonist based on their effect on basal activity. […] The concentrations spanned two orders of magnitude because affinity may not be related to efficacy. […] Effects of the test compounds are reported as the percent change from basal. More thorough dose-response analysis may be run to determine, for example, if a compound is a full or partial agonist.
Methods. […] In a final volume of 0.5 mL, each assay tube contained: 0.02 mg crude membrane homogenate (0.1 mL), 200 μM GDP (0.05 mL; to reduce basal G-protein activity), 0.1 nM GTP-γ-[^35S] (0.05 mL) and several concentrations of test compound (0.05 mL) or an equivalent volume of vehicle (used for determination of total binding). Nonspecific binding was determined in the presence of 100 μM unlabeled GTP-γ-S (0.05 mL). Duplicate samples were incubated for 1 h at 30° C. Since this assay is amenable for use with high throughput screening methods, the binding assays were run using a 96-well plate format. Specific binding was calculated as total binding-nonspecific binding.

[3] = tested on: CB1 versus CB2 receptors; assay: Relative selectivity of the analogs for CB1 versus CB2 receptors; conditions: CB1 versus CB2 binding, Tables 1, 6 and 7
Text: as §1

[4] = biological target: T3, CB1 receptor (Rattus norvegicus, UniProt P20272); assay: Radioligand displacement in whole rat brain (CB1) membrane preparations; type: binding; conditions: Tables 1 and 2
T3 construct: Whole rat brains or dissected regions from live CD rats; tissue Charles River or Pel-Freez Biologicals; host or cells: whole rat brain (CD rats), P2 membrane
Procedure, shortened: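 Washed P2 membranes from whole rat brain (ca. 0.2 mg/mL) in 50 mM Tris.HCl, 1 mM EDTA, 3 mM MgCl2, pH 7.4 were incubated with radioligand and compound for 1 h at 30 °C, then filtered. IC50 values came from one- or two-site nonlinear fits and were converted to Ki by Cheng-Prusoff. Duplicates were run across 3–6 experiments.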

[5] = biological target: T4, human CB1 receptor (Homo sapiens, UniProt P21554); assay: Radioligand displacement in human CB1 receptor-transfected cells (HEK-293); type: binding
T4 construct: expressed in transfected cells; host or cells: HEK-293
Procedure, shortened: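 Radioligand displacement was run on HEK-293 cells expressing human CB1, with incubation and separation as for rat brain membranes. IC50 values came from one- or two-site nonlinear regression and were converted to Ki by Cheng-Prusoff.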

[6] = biological target: T5, CB1 (human) clone receptors (Homo sapiens, UniProt P21554); assay: GTP-γ-[35S] binding in CB1 (human) clone receptors; type: biochemical; conditions: assay run in CB1 (human) clone receptors
T5 construct: expressed in transfected cells
Text: Cannabinoid receptor-mediated alteration in GTP-γ-[^35S] binding. In addition to assessing CB1 and CB2 receptor affinities, all of the compounds have been screened in the GTP-γ-[^35S] assay to begin characterization of the compounds as agonists, partial agonists, antagonists or inverse agonists.
as §2, with “In the current assay, GTP-γ-[^35S] cannot be hydrolyzed by the α-subunit. Thus, the amount of bound GTP-γ-[^35S] is a marker for G-protein activation. In this assay, an agonist increases basal GTP-γ-[^35S] binding, an inverse agonist decreases basal binding and basal binding would be unaffected by an antagonist.” left out
Methods. Binding was determined using membrane homogenates from whole brain The assays were conducted as previously described (Sim et al. 1996) on brain tissue prepared as described above. […] Nonspecific binding was determined in the presence of 100 μM unlabeled GTP-γ-S (0.05 mL). […] Specific binding was calculated as total binding-nonspecific binding.

[7] = biological target: CB1 and CB2 receptors; conditions: literature, cited from earlier work
[8] = read-out: Ki, displacement of 3H-CP55940, human CB2 transfected cells
[9] = whole rat brain membranes, effects reported as percent change from basal
[10] = read-out: Ki, displacement of 3H-CP55940, whole rat brain membranes, radioligand 3H-CP55940
[11] = read-out: Ki, displacement of 3H-SR141716A, whole rat brain membranes, radioligand 3H-SR141716A
[12] = whole rat brain membranes, radioligand 3H-CP55940
[13] = whole rat brain membranes, radioligand 3H-SR141716A
[14] = human CB1 transfected cells, radioligand 3H-CP55940, Table 3
[15] = Ki, displacement of 3H-CP55940, human CB1 transfected cells, radioligand 3H-CP55940, Table 3
[16] = Ki, displacement of 3H-SR141716A, human CB1 transfected cells, radioligand 3H-SR141716A, Table 3
[17] = human CB1 transfected cells, radioligand 3H-SR141716A, Table 3
[18] = human CB1 transfected cells, radioligand 3H-WIN55212-2, Table 3
[19] = whole rat brain membranes, inverse agonist/antagonist activity, read-out: EC50, GTP-γ-[35S] in Whole Rat Brain

T2 sequence (P20272 whole entry): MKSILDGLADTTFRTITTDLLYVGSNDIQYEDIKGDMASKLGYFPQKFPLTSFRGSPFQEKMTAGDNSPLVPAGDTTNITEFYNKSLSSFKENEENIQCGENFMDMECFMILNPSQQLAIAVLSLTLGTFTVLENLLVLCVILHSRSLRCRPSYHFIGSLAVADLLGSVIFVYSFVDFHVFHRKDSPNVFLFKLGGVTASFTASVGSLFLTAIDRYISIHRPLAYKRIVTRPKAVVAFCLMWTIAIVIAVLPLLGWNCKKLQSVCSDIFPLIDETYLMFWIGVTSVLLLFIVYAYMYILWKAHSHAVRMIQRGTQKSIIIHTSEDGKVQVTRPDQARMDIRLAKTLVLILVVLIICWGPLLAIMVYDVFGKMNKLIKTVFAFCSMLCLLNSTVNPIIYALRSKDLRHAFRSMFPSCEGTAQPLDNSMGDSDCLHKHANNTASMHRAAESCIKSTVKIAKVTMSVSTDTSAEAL
T3 sequence (P20272 whole entry): as above
T4 sequence (P21554 whole entry): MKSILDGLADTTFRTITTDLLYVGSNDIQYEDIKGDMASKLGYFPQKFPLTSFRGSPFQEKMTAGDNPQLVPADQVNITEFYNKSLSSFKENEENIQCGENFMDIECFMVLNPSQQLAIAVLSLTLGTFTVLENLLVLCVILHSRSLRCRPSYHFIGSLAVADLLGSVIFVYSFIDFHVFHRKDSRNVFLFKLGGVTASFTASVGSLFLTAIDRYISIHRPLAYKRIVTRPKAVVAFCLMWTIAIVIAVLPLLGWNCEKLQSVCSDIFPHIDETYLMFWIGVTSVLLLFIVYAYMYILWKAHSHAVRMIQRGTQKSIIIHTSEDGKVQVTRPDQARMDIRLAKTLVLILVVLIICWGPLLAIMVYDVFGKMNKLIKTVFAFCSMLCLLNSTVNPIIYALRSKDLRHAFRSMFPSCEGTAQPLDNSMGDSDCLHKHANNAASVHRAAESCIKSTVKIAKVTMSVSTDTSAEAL
T1 sequence (P34972 whole entry): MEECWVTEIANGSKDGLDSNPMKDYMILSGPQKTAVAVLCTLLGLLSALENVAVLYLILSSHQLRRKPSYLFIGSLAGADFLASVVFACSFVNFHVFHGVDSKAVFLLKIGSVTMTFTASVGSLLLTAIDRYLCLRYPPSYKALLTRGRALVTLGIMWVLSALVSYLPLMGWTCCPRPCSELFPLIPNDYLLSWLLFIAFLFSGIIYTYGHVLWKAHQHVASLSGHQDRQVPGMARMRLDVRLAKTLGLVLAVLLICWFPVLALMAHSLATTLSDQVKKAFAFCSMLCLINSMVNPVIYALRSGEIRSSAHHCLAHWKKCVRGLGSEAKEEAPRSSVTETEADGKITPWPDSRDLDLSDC
T5 sequence (P21554 whole entry): as the sequence (P21554 whole entry) above

Row | Structure (SMILES) | Max. Disp. %, 3H-CP55940 ([1]; human CB2 transfected cells) | Ki [1, 8] | Emax [2, 9] | Ki [4, 10] | Ki [4, 11] | Max. Disp. %, 3H-CP55940 [4, 12] | Max. Disp. %, 3H-SR141716A [4, 13] | Max. Disp. %, 3H-CP55940 [5, 14] | also measured
1 | Cc1c(C(=O)NCCO)nn(-c2ccc(Cl)cc2Cl)c1-c1ccc(Cl)cc1 [MF9725-93-31] | 33.3% | 4.27 µM | -76.5% | 0.385 µM | 0.343 µM | 73.2% | 85.5% |  | EC50 ([2]; whole rat brain membranes, value above highest concentration tested (footnote), read-out: EC50, GTP-γ-[35S] in Whole Rat Brain, value is above highest concentration on displacement curve): ≥ 1670 µM; CB1 selectivity (CB1 versus CB2) [3]: 10 fold
2 | CCOC(=O)c1nn(-c2ccc(Cl)cc2Cl)c(-c2ccc(Cl)cc2)c1C [SH9631-56] | 51.4% | 4.4 µM |  | 0.0318 µM | 0.0289 µM | 91.7% | 96.9% | 91.0% | Ki ([5]; read-out: Ki, displacement of 3H-CP55940): 0.0448 µM; EC50 [6]: 0.195 µM; Emax, GTP-γ-[35S] ([6]; percent change from basal): −18.4^c
3 | Cc1c(C(=O)NN2CCCCC2)nn(-c2ccc(Cl)cc2Cl)c1-c1ccc(Cl)cc1 [SR141716A] |  |  |  |  |  |  |  |  | Ki for CB1 lower than for CB2 ([7]; selectivity for the CB1 over the CB2 receptor): over 50 fold
4 | CCCCCCCCNC(=O)c1nn(-c2ccc(Cl)cc2Cl)c(-c2ccc(Cl)cc2)c1C [MF9879-164-28] | 45.3% |  |  |  |  | 80.2% | 75.2% |  | Ki ([1]; Ki, displacement of 3H-CP55940, human CB2 transfected cells): 98.4 µM; Max. Disp. %, 3H-CP55940 [5]: 70.6%; Max. Disp. %, 3H-SR141716A [5]: 67.8%; Max. Disp. %, 3H-WIN55212-2 [5]: 35.2%; Ki ([5]; Ki, displacement of 3H-CP55940): 0.288 µM; Ki ([5]; Ki, displacement of 3H-SR141716A): 0.0447 µM; Ki ([5]; Ki, displacement of 3H-WIN55212-2): 0.267 µM; EC50 [2]: ≥ 677 µM; Emax [2]: -21.3%; Ki ([4]; Ki, displacement of 3H-CP55940, whole rat brain membranes, radioligand 3H-CP55940): 0.135 µM; Ki ([4]; Ki, displacement of 3H-SR141716A, whole rat brain membranes, radioligand 3H-SR141716A): 0.0374 µM; Ki ([4]; Ki, displacement of 3H-WIN55212-2, whole rat brain membranes, radioligand 3H-WIN55212-2): 0.0362 µM; Max. Disp. %, 3H-WIN55212-2 ([4]; whole rat brain membranes, radioligand 3H-WIN55212-2): 68.4%
5 | CCCCCCC(C)(C)c1ccc([C@@H]2C[C@H](O)CC[C@H]2CCCO)c(O)c1 [CP55,940] |  |  |  |  |  |  |  |  | affinity at CB1 and CB2 receptor sites [7]: approximately equal affinity
6 | CCNC(=O)c1nn(-c2ccc(Cl)cc2Cl)c(-c2ccc(Cl)cc2)c1C [MF9725-54C] | 59.6% | 3.11 µM | -46.9% | 0.0463 µM | 0.0615 µM | 91.4% | 100% | 66.7% | Ki [5, 15]: 0.137 µM; Ki [5, 16]: 0.0351 µM; Ki ([5]; Ki, displacement of 3H-WIN55212-2, human CB1 transfected cells, radioligand 3H-WIN55212-2, Table 3): 0.185 µM; Max. Disp. %, 3H-SR141716A [5, 17]: 95.3%; Max. Disp. %, 3H-WIN55212-2 [5, 18]: 78.8%; EC50 [2, 19]: 30.3 µM
7 | CCCNC(=O)c1nn(-c2ccc(Cl)cc2Cl)c(-c2ccc(Cl)cc2)c1C [MF9725-55C] | 68.3% | 2.96 µM | -35.7% | 0.0299 µM | 0.0236 µM | 97.4% | 100% | 81.9% | Ki [5, 15]: 0.0337 µM; Ki [5, 16]: 0.006 µM; Max. Disp. %, 3H-SR141716A [5, 17]: 93.4%; Max. Disp. %, 3H-WIN55212-2 [5, 18]: 73.3%; EC50 [2, 19]: 11.1 µM
